Data: US20160264558A1, “FLUOROGENIC PROTECTING GROUP” (ISIS INNOVATION LIMITED, priority 2013, published 2016)

Columns and labels:
BRD4 = BRD4 (Homo sapiens, UniProt O60885); test: AlphaScreen assay against BRD4; assay type: binding
[1] = target: T1, purified human cytochrome p450 reductase (Homo sapiens, UniProt P16435); test: Purified reductase assay (hypoxic/normoxic incubation, HPLC); assay type: in vitro ADME; details: 250 nM
T1 construct: purchased Cypex
T1 sequence (P16435 1-677): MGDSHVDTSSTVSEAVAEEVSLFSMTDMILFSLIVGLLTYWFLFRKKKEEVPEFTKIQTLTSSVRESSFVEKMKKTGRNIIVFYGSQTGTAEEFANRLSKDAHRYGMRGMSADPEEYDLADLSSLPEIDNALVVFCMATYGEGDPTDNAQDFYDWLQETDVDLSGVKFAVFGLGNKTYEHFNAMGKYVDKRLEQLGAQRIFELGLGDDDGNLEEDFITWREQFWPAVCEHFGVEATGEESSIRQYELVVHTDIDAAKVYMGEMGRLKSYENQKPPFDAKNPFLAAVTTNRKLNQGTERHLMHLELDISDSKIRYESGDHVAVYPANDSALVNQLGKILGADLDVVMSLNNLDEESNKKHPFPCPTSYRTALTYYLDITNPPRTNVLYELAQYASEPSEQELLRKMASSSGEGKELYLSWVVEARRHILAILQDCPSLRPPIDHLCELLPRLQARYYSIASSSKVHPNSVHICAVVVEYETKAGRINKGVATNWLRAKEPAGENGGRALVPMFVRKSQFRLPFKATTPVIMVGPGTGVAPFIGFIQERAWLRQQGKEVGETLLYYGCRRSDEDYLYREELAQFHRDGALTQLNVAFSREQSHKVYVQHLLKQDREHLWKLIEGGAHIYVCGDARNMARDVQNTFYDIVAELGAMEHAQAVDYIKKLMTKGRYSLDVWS
Procedure: The bioreductive compound 18 (Example 1) was incubated with purified human cytochrome p450 reductase in hypoxic and normoxic conditions.
Bactosomal human NADPH-CYP reductase (Cypex, 12.7 mg/mL, 13900 nmol/min/mL) was used in combination with an NADPH-regenerating system (BD Biosciences), and the assay was carried out according to the manufacturer's protocol (BD Biosciences application note 467) at a compound 18 concentration of 250 nM. For hypoxic conditions, vials were deoxygenated by bubbling nitrogen prior to P450 addition and then transferred into a Bactron II (Shell laboratories). Samples were taken at different time points and analyzed by HPLC.

[2] = test system: RKO (colorectal) cancer cell lines; test: Cell-based assay: incubation in RKO cells, HPLC of the lysate
Procedure: Compound 21 was administered to cells in culture and incubated in (a) hypoxic and (b) normoxic conditions.
RKO (colorectal) cancer cell lines were cultured in DMEM medium containing 10% FBS, penicillin (100 U/mL) and streptomycin (100 μg/mL). RKO cell line was originally obtained from the ATCC and routinely mycoplasma tested and found to be negative. Experiments were carried out with cells at 75% confluence.
Hypoxia Treatments were carried out in a Bactron II (Shell laboratories), In vivo 400 (Ruskinn), or Heracell mixed gas incubator (Fisher Scientific) depending on the level of hypoxia required.
HPLC Analysis HPLC (Waters 2695 system) comprised an RPB column (100 mm×3.2 mm, 35° C.). […] Detection used a photodiode array spectrophotometer (Waters 2996), a mass spectrometer (Waters Micromass ZQ mass spectrometer), and a UV spectrometer (Waters 296 diode array detector) scanning from 210 nm to 400 nm with a resolution set at 3.6 nm. Injections of 10 μL were made.

[3] = target: T2, Cytochrome P450 reductase (Homo sapiens, UniProt P16435); test: Cytochrome P450 reductase assay of compound A; assay type: in vitro ADME; details: anaerobic conditions, over 8 h (FIG. 8)
T2 sequence (P16435 1-677): T1 sequence (P16435 1-677)
Procedure: Compound A was subject to a Cytochrome P450 reductase assay in accordance with the procedure of Cazares-Korner (CH-01 is a hypoxia-activated prodrug that sensitizes cells to hypoxia/reoxygenation through inhibition of Chk1 and Aurora A., ACS Chem. Biol. 2013 DOI:10.1021/cb4001537).
FIG. 8 records absorbance at 0, 2, 4 and 8 hours under hypoxic (FIG. 8a) and normoxic (FIG. 8b) conditions.

[4] = Fluorimetry of compound A and its reduced counterpart B; assay type: physicochemical; details: 50 μM in iPrOH, excitation wavelength 515 nm, (FIG. 6)
Procedure: Compound A (Example 7) was synthesised in accordance with Sun et at (Chem. Commun., 2013, 49, 3890-3892). Fluorescence spectra of the compound, as well as its reduced counterpart compound B, was confirmed by fluorimetry.
50 μM solutions of A and B were prepared in iPrOH and fluorimetry carried out using a Perkin Elmer Luminescence Spectrometer LS 50 B with an excitation wavelength of 515 nm. Results are depicted in FIG. 6.

Cc1noc(C)c1-c1cc(OCc2c([N+](=O)[O-])ccc3ncccc23)cc(C(O)c2ccccc2)c1 (stereo not drawn) [Compound 18, (3-(3,5-Dimethylisoxazol-4-yl)-5-((6-nitroquinolin-5-yl)methoxy)phenyl)(phenyl) methanol]
decrease in potency vs compound 3 (BRD4; BRD4 AlphaScreen IC50, compound 18 vs compound 3): 2 fold | IC50 (BRD4; same AlphaScreen assay): 749 nM | reduction/fragmentation by human CYP reductase ([1]; hypoxic conditions, HPLC (FIG. 2a)): undergoes reduction by human CYP, including fragmentation to release compound 3 | reduction/fragmentation by human CYP reductase ([1]; normoxic conditions, HPLC (FIG. 2b)): no activation was observed

CC(=O)Nc1ccc(OCc2c([N+](=O)[O-])ccc3ncccc23)cc1 [Compound 21, N-(4-((6-Nitroquinolin-5-yl)methoxy)phenyl)acetamide]
UV absorbance of the compound's peak in the cell lysate ([2]; hypoxia, HPLC (FIG. 3a)): hypoxia-dependent decrease in UV absorbance | UV absorbance of the compound's peak in the cell lysate ([2]; normoxia, over 24 h, HPLC (FIG. 3b)): continued to increase | melting point: 204 to 206 °C

N#CC(C#N)=C1C=C(/C=C/c2ccc(N=[N+]=[N-])cc2)Oc2ccccc21 [Compound A, (E)-2-(2-(4-azidostyryl)-4H-chromen-4-ylidene)malononitrile]
reductive conversion to compound B [3]: trace reductive conversion to compound B | difference in fluorescence emission between A and B [4]: ~650 fold
